From patent publication US5451569A, “Pulmonary drug delivery system” (Hong Kong University of Science and Technology R & D …, priority 1994, dated 1995)

Key:
rats [1] = assay: Urine osmolarity and urine volume after tracheal instillation of AVP during 5% glucose infusion; type: in vivo, rat; conditions: 0.6 units AVP by tracheal instillation after 30 minutes of 5% glucose infusion at 10 ml/hr
Method: The trachea was cannulated for drug delivery.
This example illustrates the effect of surfactant on pulmonary vasopressin (AVP) absorption. The experimental details were as follows. 5% glucose was infused at 10 ml/hr throughout the experiment. Urine osmolarity and urine volume resulting from glucose administration alone was contrasted with (1) a delivery of 0.6 units AVP, and (2) delivery of 0.6 units of AVP with 60 μl of surfactant (at a concentration of 40 mg/ml). In (1) and (2) the delivery of AVP and AVP with surfactant was by instillation through the trachea after 30 minutes of glucose infusion which infusion continued. FIGS. 3(a) and (b) show the results in term of urine osmolarity and volume respectively. Infusion of 5% glucose should have the effect of decreasing urine osmolarity and increasing urine volume.

rats [2] = assay: Blood glucose after intravenous or tracheal delivery of insulin in cannulated rats
Method: A sufficient number of rats weighing between 350-400 g were selected. In each rat the carotid artery and jugular vein were cannulated for blood sampling and fluid infusion. The trachea was cannulated for drug delivery. Fluids given through the trachea were either in a volume of 100 μl or 200 μl given in two separate doses 30 minutes apart. 40 μl of insulin (at a concentration of 200 units/ml) was mixed with 60 μl of lung surfactant (at a concentration of 40 mg/ml) and was administered by the tracheal route. Insulin without surfactant was administered intravenously to a control sample.

Compound	effect on urine osmolarity (rats [1]; FIG. 3(a))	effect on urine volume (rats [1]; FIG. 3(b))	time after which glucose concentration begins to rise again (rats [2]; intravenous insulin, FIG. 1(a))	intravenous insulin dose equivalent to tracheal delivery of 8 units of insulin (rats [2]; tracheal delivery of 8 units (40 μl of 200 units/ml), hypoglycemic effect, FIG. 1(b)) [units]	share of insulin that enters the bloodstream (rats [2]; tracheal delivery of 8 units, estimated from the equivalent intravenous dose)	duration of hypoglycemic effect (rats [2]; tracheal delivery, over a three hour period, FIG. 1(b))
NC(=O)CC[C@@H]1NC(=O)[C@H](Cc2ccccc2)NC(=O)[C@H](Cc2ccc(O)cc2)NC(=O)[C@@H](N)CSSC[C@@H](C(=O)N2CCC[C@H]2C(=O)N[C@@H](CCCN=C(N)N)C(=O)NCC(N)=O)NC(=O)[C@H](CC(N)=O)NC1=O [AVP, vasopressin]	increases urine osmolarity	reduces urine volume	–	–	–	–
insulin	–	–	approximately 60 mins	0.5	about 6.25%	no significant increase in glucose concentration
